Counter-ions that a name gives are not always drawn.
Legend:
protein kinase C (PKC) = experiment: Measurement of the activity to inhibit protein kinase C (PKC); assay type: biochemical, rat; conditions: for Ki: ATP 1, 3, 5 and 10 μM, double reciprocal plotting, PKC from rat brain, read-out: PKC inhibiting activity in terms of Ki value
Method: Each of compounds 1 to 10 was used as an inhibitor for PKC. As a comparative compound, 1- 2-(6-benzothiazolesulfonylamino)ethyl!-4- 3-(phenoxy)propyl!piperazine dihydrochloride disclosed in International Patent Application Publication No. W092/14712 was used. Measurement of a PKC inhibiting activity of each of compounds 1 to 10 was conducted utilizing a kit for measuring PKC inhibiting activity (manufactured and sold by Medical and Biological Laboratories, Japan). PKC was isolated from a rat brain and purified by the method according to Inagaki et al. (Journal of Biochemistry, vol. 260, p.2922-2925, 1985). On the surface of each well of the 96-well plate of the measuring kit, a peptide which is a substrate for PKC was immobilized. To each of the wells was added a solution containing 25 mM Tris buffer (pH 7.5), 3 mM magnesium chloride, 1 mM calcium chloride, 0.1% 2-mercaptoethanol, 1 mg/ml bovine serum albumin, 50 μg/ml phosphatidylserine, 10 μg/ml PKC and 1 μM of ATP, thereby initiating the reaction. Substantially the same reaction as mentioned above was repeated three more times, except that the ATP concentration was changed to 3, 5 and 10 μM. 3 Minutes after the initiation of each of the reactions, 100 μl of an aqueous 20% phosphoric acid solution was added to each well of the individual plates to terminate the reaction. Each well was washed with TrPBS three times. 100 μl of the primary antibody included in the kit, which had been diluted 10-fold with TwPBS, was added to each of the washed wells, and allowed to stand at room temperature for 1 hour. Each well was washed with TrPBS three times. Then, as a secondary antibody, 100 μl of peroxydase-labeled anti-mouse IgG antibody (manufactured and sold by Bio-Rad laboratories, U.S.A.) which had been diluted 1000-fold with TwPBS was added to each well, and allowed to stand at room temperature for 1 hour. Each well was washed with TrPBS three times. To each well was added 100 μl of a coloring agent containing 2 mg/ml orthophenylenediamine and an aqueous 0.04% hydrogen peroxide solution. When the coloring proceeded satisfactorily, 30 μl of 4.5M sulfuric acid was added to each well to terminate the reaction. The absorbance of the reaction mixture in each well was determined using a microplate reader (manufactured and sold by Bio-Rad laboratories, u.s.a.). In order to measure the PKC inhibiting activity of each of compounds 1 to 10 and the comparative compound, each of the compounds having an appropriate concentration was individually added to the above-mentioned respective solutions having ATP concentrations of 1, 3, 5 and 10 μM and, then, the PKC activity was individually measured in terms of the absorbance in substantially the same manner as mentioned above. The PKC inhibiting activity in terms of inhibition constant (Ki) was individually obtained by double reciprocal plotting of the respective PKC activities obtained in the presence of each of compounds 1 to 10 and the comparative compound, and the respective PKC activities obtained in the absence of compounds 1 to 10 and the comparative compound.

[1] = test system: tracheal specimens excised from guinea pigs (bronchial smooth muscle); experiment: Inhibitory effect on KCl-induced contraction of tracheal specimens excised from guinea pigs; design: species or system guinea pig; conditions: for Emax: Cavia porcellus, 20 mM KCl-induced contraction, maximum relaxation with 100 μM papaverine = 100%, 37 °C, 3 specimens, cumulative addition, read-out: Bronchial smooth muscle-relaxation ratio
Description: According to a method in which tracheal specimens excised from guinea pigs were used (Takagi and Ozawa, "Yakubutsugaku Jikken (Experiments in Pharmacology)", p.100-102, 1960, published by Nanzando, Japan; and Fujiwara and Shibata, "Yakurigaku Kiso Jikenho (Methods of Fundamental Experiments in Pharmacology)" p.131-134, 1982, published by Kyourin, Japan), the relaxing effect of benzothiazolesulfonamide derivatives of the present invention (compounds 1 to 10) on bronchial smooth muscle was evaluated. From male guinea pigs weighing 350 to 500 g (Hartley strain, Kuroda Junkei Dobutsu), tracheas were excised and each of the excised tracheal specimens was hung in a 20 ml Magnus tube filled with Krebs-Henseleit solution containing 3 μM indomethacin under isometric conditions (initial load: 1.5 g). The solution temperature was kept at 37 ° C. in an atmosphere containing 95% O2 and 5% CO2. […] On the other hand, each of the compounds of the present invention was dissolved in distilled water or physiological saline and, after the KCl-induced contraction became stable, the compound solution was cumulatively added into the Magnus tube. The relaxing effect of each of the compounds of the present invention on contracted tracheal specimens was evaluated and a dose-response curve was obtained. After the evaluation of the relaxing effect, 100 μM of papaverine was individually added into the Magnus tubes, to thereby obtain a maximum relaxation value. Taking the obtained maximum relaxation value as 100%, the relaxation ratio was calculated with respect to each of thee compounds of the present invention. The number of specimens tested for each compound was 3. As a comparative compound, 1- 2-(6-benzothiazolesulfonylamino)ethyl!-4- 3-(phenoxy)propyl!piperazine […] disclosed in International Patent Application Publication No. WO92/14712 was used. (2) Results of the calculations

[2] = target: T1, Myosin light chain kinase (MLCK) (Gallus gallus, UniProt P11799); experiment: Measurement of the activity to inhibit Myosin light chain kinase (MLCK); assay type: biochemical; conditions: for Ki: ATP 20, 30, 50 and 100 μM, double reciprocal plotting, substrate MLC from chicken gizzard, read-out: MLCK inhibiting activity in terms of Ki value
T1 construct: MLCK was isolated and purified by the method according to Walsh et al; from tissue
T1 sequence (P11799 935-1906): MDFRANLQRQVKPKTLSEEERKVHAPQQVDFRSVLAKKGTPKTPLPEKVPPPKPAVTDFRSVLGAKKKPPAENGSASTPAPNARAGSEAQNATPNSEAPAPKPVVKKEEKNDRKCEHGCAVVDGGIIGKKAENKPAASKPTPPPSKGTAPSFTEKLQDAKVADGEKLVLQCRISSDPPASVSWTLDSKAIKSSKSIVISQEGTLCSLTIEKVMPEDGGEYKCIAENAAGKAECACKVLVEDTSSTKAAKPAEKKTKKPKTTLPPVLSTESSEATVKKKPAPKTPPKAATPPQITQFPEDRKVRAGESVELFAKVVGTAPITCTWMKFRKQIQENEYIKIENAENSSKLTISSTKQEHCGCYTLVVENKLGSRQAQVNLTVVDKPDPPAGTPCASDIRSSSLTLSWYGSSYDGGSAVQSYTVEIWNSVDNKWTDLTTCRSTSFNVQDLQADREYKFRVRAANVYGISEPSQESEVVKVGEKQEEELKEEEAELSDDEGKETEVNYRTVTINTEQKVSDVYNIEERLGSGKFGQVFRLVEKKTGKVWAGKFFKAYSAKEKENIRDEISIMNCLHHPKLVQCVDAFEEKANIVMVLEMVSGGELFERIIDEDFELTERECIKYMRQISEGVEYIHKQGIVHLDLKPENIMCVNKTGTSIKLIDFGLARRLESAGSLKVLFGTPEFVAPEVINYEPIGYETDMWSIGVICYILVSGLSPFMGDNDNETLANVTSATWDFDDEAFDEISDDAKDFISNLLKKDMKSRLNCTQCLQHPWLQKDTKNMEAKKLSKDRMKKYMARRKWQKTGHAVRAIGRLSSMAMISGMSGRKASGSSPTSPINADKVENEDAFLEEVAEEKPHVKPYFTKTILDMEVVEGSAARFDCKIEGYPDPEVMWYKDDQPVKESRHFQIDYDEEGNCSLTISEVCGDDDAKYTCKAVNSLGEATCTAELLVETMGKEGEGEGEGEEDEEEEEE
Method: Each of compounds 1 to 10 was used as an inhibitor for MLCK. As a comparative compound, 1- 2-(6-benzothiazolesulfonylamino)ethyl!-4- 3-(phenoxy)propyl!piperazine dihydrochloride disclosed in International Patent Application Publication No. WO92/14712 was used. Measurement of an MLCK inhibiting activity of each of compounds 1 to 10 was conducted utilizing the reaction system of MLCK and an antibody specific for phosphorylated myosine light chain (MLCP). MLC was isolated from a chicken gizzard and purified by the method according to Perry et al. (Journal of Biochemistry, vol. 211, p.267-272, 1983), to thereby obtain 20 kDa of purified MLC. On the other hand, MLCK was isolated and purified by the method according to Walsh et al. (Methods in Enzymology, vol. 99, p.279-288, 1983). Calmodulin was isolated from a pig brain and purified by the method according to Yazawa (Journal of Biochemistry, vol. 87, p.1313-1320, 1980). Further, anti-MLCP antibody was prepared by using, as an antigen, a synthetic peptide which has an amino acid sequence of an MLCP amino acid fragment of 12 amino acid residues containing a serine residue (phosphorylation site of MLCP). […] The synthetic peptide was subjected to phosphorylation by MLCK in the presence of ATP, followed by purification by high performance liquid chromatography. The purified peptide was conjugated with key hole limpet hemocyanin (KLH). The conjugation efficiency thereof was 110-148 nmol peptide/mg KLH. 0.2 mg of the KLH-conjugated peptide was mixed with an adjuvant and injected to a rabbit. The injection was conducted four more times, to thereby immunize the […]. An anti-MLCP antibody was obtained from the […], and the antibody titer thereof was examined. With respect to the anti-MLCP antibody having a satisfactorily high antibody titer, an IgG fraction (anti-MLCP IgG) was obtained and purified. Measurement of the MLCK activity was conducted as follows. MLC was diluted with a phosphate buffer (PBS) to obtain a solution having a MLC concentration of 5 μg/ml. 100 μl of the solution was added to each well of 96-well immunoplate, and was allowed to stand overnight at 4° C., to thereby immobilize the MLC on the surface of each well. Each plate was washed with PBS to thereby remove the MLC which had not been immobilized. To each of the MLC-immobilized wells was added a solution containing 25 mM Tris buffer (pH 7.5), 3 mM magnesium chloride, 1 mM calcium chloride, 0.1% of 2-mercaptoethanol, 1 mg/ml bovine serum albumin, 20 μg/ml calmoduline, 0.1 μg/ml MLCK, and 20 μM of ATP, thereby initiating the reaction. Substantially the same reaction as mentioned above was repeated three more times, except that the ATP concentration was changed to 30, 50 and 100 μM. 3 Minutes after the initiation of each of the reactions, 100 μl of an aqueous 20% phosphoric acid solution was added to each well of the individual plates to terminate the reaction. Each well was washed three times with PBS containing 0.2% of Triton X-100 (TrPBS). As a primary antibody, 100 μl of anti-MLCP antibody which had been diluted 500-fold with PBS containing 0.05% Tween 20 (TwPBS) was added to each of the washed wells, and allowed to stand at room temperature for 1 hour. Each well was washed with TrPBS three times. Then, as a secondary antibody, 100 μl of peroxydase-labeled anti-rabit IgG antibody (manufactured and sold by Cappel Co., Ltd., Germany) which had been diluted 1000-fold with TwPBS was added to each well, and allowed to stand at room temperature for 1 hour. Each well was washed with TrPBS three times. To each well was added 100 μ l of a coloring agent containing 2 mg/ml orthophenylenediamine and an aqueous 0.04% hydrogen peroxide solution. When the coloring proceeded satisfactorily, 30 μl of 4.5M sulfuric acid was added to each well to terminate the reaction. The absorbance of the reaction mixture in each well was determined using a microplate reader (manufactured and sold by Bio-Rad laboratories, U.S.A.). […]

bronchial smooth muscle = conditions: disclosed in WO92/14712; cited from earlier work

| SMILES | Ki (protein kinase C (PKC)) | Emax [1] | Ki [2] | activity to inhibit protein kinase C (in words) (protein kinase C (PKC); conclusion from Table 1) | ability to relax a bronchial smooth muscle of a tracheal specimen (in words) ([1]; KCl-induced contraction, conclusion from Table 2) | activity to inhibit myosin light chain kinase (in words) ([2]; conclusion from Table 1) | ability to relax a bronchial smooth muscle by its antihistaminic activity (bronchial smooth muscle) |
| --- | --- | --- | --- | --- | --- | --- | --- |
| O=S(=O)(c1cccc2ncsc12)N1CCCNCC1 [Compound 1, 1-(7-benzothiazolesulfonyl)homopiperazine hydrochloride] | 7 µM | 30.5% | 80 µM | – | – | – | – |
| O=S(=O)(NCCNCc1cccc(Cl)c1)c1cccc2ncsc12 [Compound 8, N-2-(3-chlorobenzylamino)ethyl!-7-benzothiazolesulfonamide hydrochloride] | 5 µM | 85.7% | 55 µM | – | – | – | – |
| O=S(=O)(NCCNCc1ccc2c(c1)OCO2)c1cccc2ncsc12 [Compound 7, N-2-(3,4-methylenedioxybenzylamino)ethyl!-7-benzothiazolesulfonamide hydrochloride] | 6 µM | 96.8% | 50 µM | – | – | – | – |
| NCCNS(=O)(=O)c1cccc2ncsc12 [Compound 4, 1-(7-benzothiazolesulfonyl)ethylenediamine hydrochloride] | 5 µM | 33% | 75 µM | – | – | – | – |
| CNCCNS(=O)(=O)c1cccc2ncsc12 [Compound 5, 1-(7-benzothiazolesulfonyl)-4-methylethylenediamine hydrochloride] | 35 µM | 22% | 120 µM | – | – | – | – |
| CC1CNCCN1S(=O)(=O)c1cccc2ncsc12 (stereo not shown) [Compound 3, 1-(7-benzothiazolesulfonyl)-2-methylpiperazine hydrochloride] | 15 µM | 21.1% | 90 µM | – | – | – | – |
| O=S(=O)(NCCN1CCN(CCCOc2ccccc2)CC1)c1ccc2ncsc2c1 [Comparative compound, 1-2-(6-benzothiazolesulfonylamino)ethyl!-4-3-(phenoxy)propyl!piperazine dihydrochloride, reference compound] | > 200 µM | 6.8% | > 200 µM | no activity to inhibit the protein kinases | no ability to relax such a bronchial smooth muscle | no activity to inhibit the protein kinases | – |
| O=S(=O)(c1cccc2ncsc12)N1CCNCC1 [Compound 2, 1-(7-benzothiazolesulfonyl)piperazine hydrochloride] | 5 µM | 24% | 50 µM | – | – | – | – |
| O=S(=O)(NCCN1CCN(CCCOc2ccccc2)CC1)c1ccc2ncsc2c1 [1-2-(6-benzothiazolesulfonylamino)ethyl!-4-3-(phenoxy)propyl!piperazine] | – | – | – | – | – | – | has the ability to relax a bronchial smooth muscle by its antihistaminic activity |
| O=S(=O)(c1ccc2ncsc2c1)N1CCNCC1 [Compound 6, 1-(6-benzothiazolesulfonyl)piperazine hydrochloride] | 15 µM | 27.2% | 25 µM | – | – | – | – |
| O=S(=O)(NCCNCc1cccc(F)c1)c1cccc2ncsc12 [Compound 10, N-2-(3-fluorobenzylamino)ethyl!-7-benzothiazolesulfonamide hydrochloride] | 7 µM | 78% | 55 µM | – | – | – | – |
| CC(NCCNS(=O)(=O)c1cccc2ncsc12)c1cccc(Cl)c1 (stereo not shown) [Compound 9, N-{2-1-(3-chlorophenyl)ethyl!aminoethyl}-7-benzothiazolesulfonamide hydrochloride] | 25 µM | 74.6% | 90 µM | – | – | – | – |
